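These data come from cells grown in 96-well plates and exposed to compound for 48 hours at five concentrations. GI50: concentration for 50% inhibition of growth.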 Calls of active or inactive are those of the source. Rule as the data show it: active = GI50 up to about 1.1 µM and inactive = higher.
Columns and labels:
Assay in all cases: DTP human tumour cell line panel, 48 h
CAKI-1 = tested on: CAKI-1
EKVX = tested on: EKVX
HCT-15 = tested on: HCT-15
HT-29 = tested on: HT-29
K562 = tested on: K562
KM12 = tested on: KM12
MOLT-4 = tested on: MOLT-4
Malme-3M = tested on: Malme-3M
NCI-H226 = tested on: NCI-H226
RPMI-8226 = tested on: RPMI-8226
SF-539 = tested on: SF-539
SK-MEL-28 = tested on: SK-MEL-28
SN12C = tested on: SN12C
SNB-19 = tested on: SNB-19
U-251 = tested on: U-251
UACC-257 = tested on: UACC-257
HOP-62 = tested on: HOP-62
786-0 = tested on: 786-0
UACC-62 = tested on: UACC-62

| SMILES | GI50 (CAKI-1) | GI50 (EKVX) | GI50 (HCT-15) [µM] | GI50 (HT-29) | GI50 (K562) | GI50 (KM12) | GI50 (MOLT-4) | GI50 (Malme-3M) | GI50 (NCI-H226) | GI50 (RPMI-8226) | GI50 (SF-539) | GI50 (SK-MEL-28) | GI50 (SN12C) | GI50 (SNB-19) | GI50 (U-251) | GI50 (UACC-257) | GI50 (HOP-62) | GI50 (786-0) | GI50 (UACC-62) |
| --- | --- | --- | --- | --- | --- | --- | --- | --- | --- | --- | --- | --- | --- | --- | --- | --- | --- | --- | --- |
| Nc1nc(=O)[nH]c2c1cnn2C1CCCCO1 (stereo not given) | > 100 µM (inactive) | > 100 µM (inactive) | > 100 | > 100 µM (inactive) | > 100 µM (inactive) | > 100 µM (inactive) | > 100 µM (inactive) | > 100 µM (inactive) | 39.3 µM (inactive) | > 100 µM (inactive) | > 100 µM (inactive) | > 100 µM (inactive) | > 100 µM (inactive) | > 100 µM (inactive) | > 100 µM (inactive) | > 100 µM (inactive) |  |  |  |
| CCC(C)CN1C(=O)NC(Cc2ccccc2)C1=O (stereo not given) | > 100 µM (inactive) | > 100 µM (inactive) |  | > 100 µM (inactive) |  | > 100 µM (inactive) |  | > 100 µM (inactive) | > 100 µM (inactive) |  | > 100 µM (inactive) | > 100 µM (inactive) | > 100 µM (inactive) | > 100 µM (inactive) | > 100 µM (inactive) | 22.1 µM (inactive) | > 100 µM (inactive) |  |  |
| O=C(Nc1ccc(Cl)cc1Cl)/C(Cl)=C1/Sc2ccccc2NC1=O | 41.2 µM (inactive) | 58.1 µM (inactive) | 25.9 |  | 29.6 µM (inactive) |  | 25.6 µM (inactive) | 20 µM (inactive) | 25.2 µM (inactive) | 24 µM (inactive) | 30.2 µM (inactive) | 23.6 µM (inactive) | 28.4 µM (inactive) | 34.5 µM (inactive) | 32.3 µM (inactive) |  | 39.7 µM (inactive) | 45.3 µM (inactive) | 25.6 µM (inactive) |
| C#CCC1(C(=O)OCC)C(=O)c2ccccc2N(C)C1=O (stereo not given) | 35.6 µM (inactive) | > 100 µM (inactive) | > 100 | > 100 µM (inactive) | 91.8 µM (inactive) |  | 45.2 µM (inactive) | > 100 µM (inactive) | 62.5 µM (inactive) | 68.4 µM (inactive) | > 100 µM (inactive) | > 100 µM (inactive) | 67.9 µM (inactive) | 45.4 µM (inactive) | > 100 µM (inactive) |  |  |  | > 100 µM (inactive) |
| O=C(O)[C@@H](NS(=O)(=O)c1ccc(F)cc1)c1ccccc1 | > 100 µM (inactive) | > 100 µM (inactive) | > 100 | > 100 µM (inactive) | > 100 µM (inactive) |  | > 100 µM (inactive) | > 100 µM (inactive) | > 100 µM (inactive) | > 100 µM (inactive) | > 100 µM (inactive) | > 100 µM (inactive) | > 100 µM (inactive) | > 100 µM (inactive) | > 100 µM (inactive) | > 100 µM (inactive) | > 100 µM (inactive) | > 100 µM (inactive) | > 100 µM (inactive) |
| C=CCc1cc(OC)c2c(c1)C(OC(C)=O)CC(c1ccc(OC)c(OC)c1)O2 (stereo not given) | > 100 µM (inactive) | > 100 µM (inactive) | > 100 | > 100 µM (inactive) | > 100 µM (inactive) | > 100 µM (inactive) | > 100 µM (inactive) | > 100 µM (inactive) | > 100 µM (inactive) |  | 47.4 µM (inactive) | > 100 µM (inactive) | > 100 µM (inactive) | 49.4 µM (inactive) | 60.5 µM (inactive) | > 100 µM (inactive) | 45.4 µM (inactive) |  | > 100 µM (inactive) |
| c1ccc(/N=C2\C(=N/c3ccccc3)N(C3CCCCC3)/C(=N\C3CCCCC3)N2c2ccccc2)cc1 |  | > 100 µM (inactive) | > 100 | > 100 µM (inactive) | > 100 µM (inactive) | > 100 µM (inactive) | > 100 µM (inactive) | > 100 µM (inactive) | > 100 µM (inactive) | > 100 µM (inactive) |  | > 100 µM (inactive) | > 10 µM (inactive) | > 100 µM (inactive) | > 100 µM (inactive) | > 100 µM (inactive) | > 100 µM (inactive) | > 100 µM (inactive) |  |
| Cc1c(/C=N/N(C)C)oc2c1cc(O)c1ncccc12 | 4.03 µM (inactive) | 2.11 µM (inactive) | 2.31 | 41.2 µM (inactive) | 3.86 µM (inactive) | 18.2 µM (inactive) | 2.59 µM (inactive) | 11.2 µM (inactive) | 13.2 µM (inactive) | 5.05 µM (inactive) |  | 22.5 µM (inactive) | 3.96 µM (inactive) | 14.1 µM (inactive) | 13.1 µM (inactive) | 5.36 µM (inactive) | 7.35 µM (inactive) | 6.28 µM (inactive) | 13.8 µM (inactive) |
| Nc1nc(SCc2ccccc2Cl)c2[nH]cnc2n1 |  | 85.9 µM (inactive) | 51.5 |  | 50.2 µM (inactive) | 74.3 µM (inactive) | 34.6 µM (inactive) | 70.8 µM (inactive) |  | > 100 µM (inactive) | 74.8 µM (inactive) | 68.9 µM (inactive) | 72.3 µM (inactive) | 70.1 µM (inactive) | 65.3 µM (inactive) | 56 µM (inactive) | 25.5 µM (inactive) |  | 61 µM (inactive) |
| CCOC(=O)C(=O)NCCCN1CCOCC1 | > 100 µM (inactive) | > 100 µM (inactive) | > 100 | > 100 µM (inactive) | > 100 µM (inactive) | > 100 µM (inactive) | > 100 µM (inactive) | > 100 µM (inactive) | > 100 µM (inactive) |  | > 100 µM (inactive) | > 100 µM (inactive) | > 100 µM (inactive) | > 100 µM (inactive) | > 100 µM (inactive) | > 100 µM (inactive) | > 100 µM (inactive) |  | > 100 µM (inactive) |
| COC(=O)c1ccccc1NC(=O)C(=O)CC(=O)CC(c1ccccc1)c1c(O)c2ccccc2oc1=O (stereo not given) | > 100 µM (inactive) | > 100 µM (inactive) |  | > 100 µM (inactive) | > 10 µM (inactive) | > 100 µM (inactive) | > 100 µM (inactive) | > 100 µM (inactive) |  | > 100 µM (inactive) | > 100 µM (inactive) | > 100 µM (inactive) | > 100 µM (inactive) | > 100 µM (inactive) |  | > 100 µM (inactive) | > 100 µM (inactive) | > 100 µM (inactive) | > 100 µM (inactive) |
| CC1(C)OC2OC(COC(=O)C=[N+]=[N-])C3OC(C)(C)OC3C2O1 (stereo not given) | > 100 µM (inactive) | > 100 µM (inactive) | > 100 | > 100 µM (inactive) | > 100 µM (inactive) | > 100 µM (inactive) | > 10 µM (inactive) | > 100 µM (inactive) | > 100 µM (inactive) | > 100 µM (inactive) |  | > 100 µM (inactive) | > 100 µM (inactive) | > 100 µM (inactive) | > 100 µM (inactive) | > 100 µM (inactive) | > 100 µM (inactive) | > 100 µM (inactive) | > 100 µM (inactive) |
| COC(=O)C(Cc1cn(C(C)n2cc(CC(NC(C)=O)C(=O)OC)c3ccccc32)c2ccccc12)NC(C)=O (stereo not given) | > 100 µM (inactive) | 25.5 µM (inactive) | > 100 | > 100 µM (inactive) |  | 32.1 µM (inactive) | 34 µM (inactive) | 13.7 µM (inactive) |  | 83.9 µM (inactive) |  | > 100 µM (inactive) | > 100 µM (inactive) | > 100 µM (inactive) | > 100 µM (inactive) | > 100 µM (inactive) | > 100 µM (inactive) |  | 98.2 µM (inactive) |
